Measured values: PMC5054527, “Mechanism of high affinity inhibition of the human urate transporter URAT1” (Scientific Reports, 2016)
Positions count from the first letter of the chain named. Read-outs that look alike come from different tables or passages of the source.

What was measured:
Test in all cases: URAT1 uric acid transport activity assay
Assay type in all cases: cell-based
[1] = biological target: T1, r-L18V rURAT1 point mutant (Rattus norvegicus, UniProt Q3ZAV1, L18V)
T1 sequence (Q3ZAV1 1-553 L18V): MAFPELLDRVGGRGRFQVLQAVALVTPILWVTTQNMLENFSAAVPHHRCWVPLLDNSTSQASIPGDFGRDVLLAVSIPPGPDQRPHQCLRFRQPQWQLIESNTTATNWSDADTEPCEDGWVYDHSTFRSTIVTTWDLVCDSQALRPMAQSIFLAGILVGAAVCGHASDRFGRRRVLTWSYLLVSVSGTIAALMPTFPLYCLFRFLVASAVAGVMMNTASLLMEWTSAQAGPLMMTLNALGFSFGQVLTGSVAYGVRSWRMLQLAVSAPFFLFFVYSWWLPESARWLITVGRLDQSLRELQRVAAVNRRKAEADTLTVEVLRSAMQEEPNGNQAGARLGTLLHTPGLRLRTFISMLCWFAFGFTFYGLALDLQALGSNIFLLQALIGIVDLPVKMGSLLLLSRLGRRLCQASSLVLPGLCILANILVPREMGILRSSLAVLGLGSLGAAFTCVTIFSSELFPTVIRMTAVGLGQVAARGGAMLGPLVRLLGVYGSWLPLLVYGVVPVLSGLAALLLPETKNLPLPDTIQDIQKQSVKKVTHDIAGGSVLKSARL
Excerpt: (§1) hURAT1 (GenBank BC053348.1) and rURAT1 (NCBI NM_001034943.1) genes were purchased from Origene Technologies, Inc. and subcloned into pCMV6/neo using NotI, creating pCMV6/neo-hURAT1 and pCMV6/neo-rURAT1. Mutants were produced by polymerase chain reaction (PCR) or site-directed mutagenesis using the QuikChange Lightning Multi Site-Directed Mutagenesis Kit (Agilent Technologies). […] Detailed methods are provided in Supplementary Methods, and primers are listed in Supplementary Table 1. […] Residues in rURAT1 and hOAT1 that correspond to the residues in hURAT1 were identified from aligned protein sequences (Supplementary Fig. 1)[50].
(§2) DNA (10 μg) was mixed with 30 μl of DreamFect Gold (Boca Scientific) in 2 ml OptiMem (Life Technologies). After 20 minutes, 18 ml of media containing 2 × 10^7 cells in suspension was added and mixed, and 200 μl per well were plated onto white clear-bottomed poly-D-lysine coated 96-well plates (BD Biosciences). The cells were assayed the following day.
(§3) Compounds were serially diluted into assay buffer and added to the cells for 5 minutes prior to addition of radiolabelled uric acid substrate. URAT1-expressing cells were incubated with 100 μM ^14C-uric acid for 10 minutes. […] Each treatment was measured in triplicate.
(§4) Unlabelled uric acid was prepared at a 20 mM stock just prior to use in a solution containing 20 mM dibasic potassium phosphate and 20 mM potassium hydroxide.
(§5) Nonlinear regression analyses using GraphPad Prism software were used to calculate the potency of URAT1 inhibitors (IC50 values) from log (inhibitor) versus response - variable slope (four parameters) equations. Statistical significance was assessed using Student’s unpaired t-tests.

[2] = biological target: T2, r-T32C rURAT1 point mutant (Rattus norvegicus, UniProt Q3ZAV1, T32C)
T2 sequence (Q3ZAV1 1-553 T32C): T1 sequence (Q3ZAV1 1-553 L18V) with V18L, T32C
Excerpt: as §1, §2, §3, §4, §5

[3] = biological target: T3, r-V474M rURAT1 point mutant (Rattus norvegicus, UniProt Q3ZAV1, V474M)
T3 construct: expressed in transfected cells; host or cells: HEK-293T
T3 sequence (Q3ZAV1 1-553 V474M): T1 sequence (Q3ZAV1 1-553 L18V) with V18L, V474M
Excerpt: as §1, §2, §3, §4, §5

## CCc1oc2ccccc2c1C(=O)c1cc(Br)c(O)c(Br)c1 [benzbromarone]
[1]
  IC50: 24 ± 3.1 µM
[2]
  IC50: 24 ± 4 µM
[3]
  IC50: 17 ± 2.2 µM

## O=C(O)CSc1nnc(Br)n1-c1ccc(C2CC2)c2ccccc12 [lesinurad, 2-((5-bromo-4-(4-cyclopropylnaphthalen-1-yl)-4H-1,2,4-triazol-3-yl)thio)acetic acid]
[1]; r-L18V, MES pH 5.5, 100 μM 14C-uric acid, read-out: IC50 (uric acid transport)
  IC50: 78 ± 6.6 µM
[2]; r-T32C, MES pH 5.5, 100 μM 14C-uric acid, read-out: IC50 (uric acid transport)
  IC50: 73 ± 5.9 µM
[3]; r-V474M, MES pH 5.5, 100 μM 14C-uric acid, read-out: IC50 (uric acid transport)
  IC50: 84 ± 3.2 µM

## O=C1C(CC[S+]([O-])c2ccccc2)C(=O)N(c2ccccc2)N1c1ccccc1 (stereo not drawn) [sulfinpyrazone]
[1]; r-L18V, HEPES pH 7.3, 100 μM 14C-uric acid, read-out: IC50 (uric acid transport)
  IC50: 971 ± 89 µM
[2]; r-T32C, HEPES pH 7.3, 100 μM 14C-uric acid, read-out: IC50 (uric acid transport)
  IC50: 691 ± 98 µM
[3]; r-V474M, HEPES pH 7.3, 100 μM 14C-uric acid, read-out: IC50 (uric acid transport)
  IC50: 732 ± 102 µM
